Measurements as given in PubChem BioAssay AID288 (DTP/NCI, 2004).
“And” between values parts separate entries of the source, which are not always exact repeats. Equal values may be shown once. Inconclusive results are not listed. Numbered stars: 1 amine (or outer) side, 2 acyl side, 3 side chain; on linkers, the order of the positions; unused ones are H or OH. Bridge positions count the residues as written; N and C are the ends. Square brackets hold non-standard residues; d marks the D form. Peptide text beside a SMILES is read from it. I, II: the chains in the order shown. * marks the point of attachment. ξ: configuration not given here. Quinaldoyl(3-OH,6-OMe) = COc1ccc2nc(C(=O)*)c(O)cc2c1; X2 = CC(=O)OC1CC=NN([*:1])C1C(=O)[*:2]; ξNMeVal(3-OH) = CNC(C(=O)O)C(C)(C)O; X3 = O=C(C1CCCNN1[*:1])[*:2]; Sar = CNCC(=O)O

System: BDF1 mice, M5076 sarcoma s.c., survival/tumor T/C
Test: NCI In Vivo Anticancer Drug Screen. Data for tumor model Sarcoma M5076 (subcutaneous) in B6D2F1 (BDF1) mice
Procedure: The antitumor activity of compounds was measured in mice bearing transplantable tumors. Survival or tumor size were measured and the results are expressed as the measurement made in the treated group (T) divided by the measurement made in the vehicle treated control group (C). The tumor model used in this assay is Sarcoma M5076 (subcutaneous) in B6D2F1 (BDF1) mice

[1] = endpoint: median survival time, dose: 50.0 mg/kg/injection, schedule: Q04DX003 (ip), vehicle: saline with Tween-80, higher = longer survival
[2] = endpoint: median survival time, dose: 100.0 mg/kg/injection, schedule: Q04DX003 (ip), vehicle: saline with Tween-80, higher = longer survival
[3] = endpoint: median survival time, dose: 200.0 mg/kg/injection, schedule: Q04DX003 (ip), vehicle: saline with Tween-80, higher = longer survival
[4] = endpoint: median survival time, dose: 50.0 mg/kg/injection, schedule: Q01DX009 (ip), vehicle: saline with Tween-80, higher = longer survival
[5] = endpoint: median survival time, dose: 100.0 mg/kg/injection, schedule: Q01DX009 (ip), vehicle: saline with Tween-80, higher = longer survival
[6] = endpoint: median survival time, dose: 200.0 mg/kg/injection, schedule: Q01DX009 (ip), vehicle: saline with Tween-80, higher = longer survival

COc1ccc2nc(C(=O)NC3COC(=O)C(C(C)(C)O)N(C)C(=O)CN(C)C(=O)CNC(=O)C4CCCNN4C(=O)C(NC(=O)c4nc5ccc(OC)cc5cc4O)COC(=O)C(C(C)(C)O)N(C)C(=O)CN(C)C(=O)CNC(=O)C4C(OC(C)=O)CC=NN4C3=O)c(O)cc2c1 (centres undefined) (I: {Quinaldoyl(3-OH,6-OMe)}-S[X2]G[Sar][ξNMeVal(3-OH)] / II: {Quinaldoyl(3-OH,6-OMe)}-S[X3]G[Sar][ξNMeVal(3-OH)]; ester I:1-II:C, I:C-II:1; configuration not given here)
T/C (endpoint: median survival time, dose: 5.0 micrograms/kg/injection, schedule: Q01DX009 (ip), vehicle: Klucel (hydroxypropylcellulose) (HPC), higher = longer survival): 97 % of control
T/C (endpoint: median survival time, dose: 10.0 micrograms/kg/injection, schedule: Q01DX009 (ip), vehicle: Klucel (hydroxypropylcellulose) (HPC), higher = longer survival): 86 % of control
T/C (endpoint: median survival time, dose: 20.0 micrograms/kg/injection, schedule: Q01DX009 (ip), vehicle: Klucel (hydroxypropylcellulose) (HPC), higher = longer survival): 95 % of control
T/C (endpoint: median survival time, dose: 40.0 micrograms/kg/injection, schedule: Q01DX009 (ip), vehicle: Klucel (hydroxypropylcellulose) (HPC), higher = longer survival): 94 % of control
T/C (endpoint: median tumor weight (est.), dose: 5.0 micrograms/kg/injection, schedule: Q01DX009 (ip), vehicle: DMSO, higher = larger tumour): 90 % of control
T/C (endpoint: median tumor weight (est.), dose: 10.0 micrograms/kg/injection, schedule: Q01DX009 (ip), vehicle: DMSO, higher = larger tumour): 107 % of control
T/C (endpoint: median tumor weight (est.), dose: 20.0 micrograms/kg/injection, schedule: Q01DX009 (ip), vehicle: DMSO, higher = larger tumour): 117 % of control

Nc1nnc[se]1
T/C [1]: 121 % of control
T/C [2]: 116 % of control
T/C [3]: 124 % of control

O=C(N/N=C\c1cc(Br)cc(Br)c1O)N/N=C/c1cc(Br)cc(Br)c1O
T/C [3]: 111 % of control
T/C (endpoint: median survival time, dose: 400.0 mg/kg/injection, schedule: Q04DX003 (ip), vehicle: saline with Tween-80, higher = longer survival): 112 % of control
T/C (endpoint: median survival time, dose: 800.0 mg/kg/injection, schedule: Q04DX003 (ip), vehicle: saline with Tween-80, higher = longer survival): 97 % of control

COC(=O)[C@@]12OC[C@]34[C@H]([C@@H](O)[C@@H]1O)[C@@]1(C)CC(=O)C(O)=C(C)[C@@H]1C[C@H]3OC(=O)[C@H](OC(=O)/C=C(\C)C(C)C)[C@@H]24
T/C (endpoint: mean tumor weight, dose: 0.5 mg/kg/injection, schedule: Q02DX011 (ip), vehicle: saline with Tween-80, higher = larger tumour): 114 % of control
T/C (endpoint: mean tumor weight, dose: 1.0 mg/kg/injection, schedule: Q02DX011 (ip), vehicle: saline with Tween-80, higher = larger tumour): 94 % of control
T/C (endpoint: mean tumor weight, dose: 2.0 mg/kg/injection, schedule: Q02DX011 (ip), vehicle: saline with Tween-80, higher = larger tumour): 26 % of control

CCOC(=O)C(CC(C)C)NC(=O)C(Cc1ccc(N(CCCl)CCCl)cc1)NC(C)=O (centres undefined)
T/C (endpoint: median survival time, dose: 8.0 mg/kg/injection, schedule: Q01DX009 (ip), vehicle: saline with Tween-80, higher = longer survival): 111 % of control
T/C (endpoint: median survival time, dose: 16.0 mg/kg/injection, schedule: Q01DX009 (ip), vehicle: saline with Tween-80, higher = longer survival): 117 % of control and 122 % of control
T/C (endpoint: median survival time, dose: 64.0 mg/kg/injection, schedule: Q01DX009 (ip), vehicle: saline with Tween-80, higher = longer survival): 170 % of control
T/C (endpoint: median tumor weight (est.), dose: 8.0 mg/kg/injection, schedule: Q01DX009 (ip), vehicle: saline with Tween-80, higher = larger tumour): 61 % of control
T/C (endpoint: median tumor weight (est.), dose: 16.0 mg/kg/injection, schedule: Q01DX009 (ip), vehicle: saline with Tween-80, higher = larger tumour): 52 % of control
T/C (endpoint: median tumor weight (est.), dose: 32.0 mg/kg/injection, schedule: Q01DX009 (ip), vehicle: saline with Tween-80, higher = larger tumour): 16 % of control

CS(=O)(=O)c1ncc(Br)cn1
T/C (endpoint: median survival time, dose: 25.0 mg/kg/injection, schedule: Q04DX003 (ip), vehicle: saline with Tween-80, higher = longer survival): 100 % of control
T/C [1]: 84 % of control
T/C [2]: 99 % of control
T/C [3]: 91 % of control

S=c1nc[nH]c2nc[nH]c12
T/C (endpoint: median survival time, dose: 12.5 mg/kg/injection, schedule: Q04DX006 (ip), vehicle: saline with Tween-80, higher = longer survival): 99 % of control
T/C (endpoint: median survival time, dose: 25.0 mg/kg/injection, schedule: Q04DX006 (ip), vehicle: saline with Tween-80, higher = longer survival): 111 % of control
T/C (endpoint: median survival time, dose: 50.0 mg/kg/injection, schedule: Q02DX033 (ip), vehicle: saline with Tween-80, higher = longer survival): 107 % of control
T/C (endpoint: median survival time, dose: 50.0 mg/kg/injection, schedule: Q04DX006 (ip), vehicle: saline with Tween-80, higher = longer survival): 105 % of control
T/C (endpoint: median survival time, dose: 100.0 mg/kg/injection, schedule: Q04DX006 (ip), vehicle: saline with Tween-80, higher = longer survival): 111 % of control

Cc1ccc(SC(F)(F)C(F)C(F)(F)F)cc1 (centres undefined)
T/C [4]: 98 % of control
T/C [5]: 112 % of control
T/C [6]: 100 % of control

NC(=O)c1cc(N2CC2)c([N+](=O)[O-])cc1[N+](=O)[O-]
T/C (endpoint: median survival time, dose: 64.0 mg/kg/injection, schedule: Q01DX001 (ip), vehicle: saline, higher = longer survival): 103 % of control (2×) and 97 % of control
T/C (endpoint: median survival time, dose: 80.0 mg/kg/injection, schedule: Q01DX001 (ip), vehicle: saline, higher = longer survival): 95 % of control
T/C (endpoint: median survival time, dose: 100.0 mg/kg/injection, schedule: Q01DX001 (ip), vehicle: saline, higher = longer survival): 106 % of control and 110 % of control and 95 % of control

O=C1/C(=C/c2ccc3c(c2)OCO3)SC(=S)N1c1ccc(Cl)c(Cl)c1
T/C [4]: 102 % of control
T/C [5]: 90 % of control
T/C (endpoint: median tumor weight (est.), dose: 50.0 mg/kg/injection, schedule: Q01DX009 (ip), vehicle: saline with Tween-80, higher = larger tumour): 154 % of control
T/C (endpoint: median tumor weight (est.), dose: 100.0 mg/kg/injection, schedule: Q01DX009 (ip), vehicle: saline with Tween-80, higher = larger tumour): 116 % of control

CCOc1cc(/C=N/NC(=O)N(c2ccccc2)c2ccccc2)ccc1O
T/C [4]: 98 % of control
T/C [5]: 99 % of control
T/C [6]: 92 % of control
